{
  "source": "patent US20170159129A1",
  "about": "“METHODS FOR DETECTING TELOMERE MAINTENANCE MECHANISMS” (priority 2015, published 2017)",
  "test_system": "ALT+ cell lines U2OS, Saos-2 and G-292",
  "experiment": "Flow-FISH G to C ratio assay for inhibition of ALT activity in ALT+ cell lines",
  "assay_type": "cell-based",
  "settings": "ALT+ cell lines incubated with 3 mM HU for 48 hours; untreated ALT+ lines above 0.8; ratio below 0.8 indicates a decrease in ALT activity",
  "text": "The present disclosure is directed to a novel improvement of flow-FISH that has been adapted for quantifying ALT activity in a cell. Briefly, cells to be analyzed are first mixed with an internal standard for telomeric DNA content. In one embodiment, the 1301 cell line, a T-cell leukemia cell line with long homogeneous telomeres is used. In other embodiments, flow cytometry microbeads with telomeric oligonucleotides can also be used to provide a standard. […] In some embodiments, the labels have the same fluorescence and stability characteristics (e.g. FITC). In other embodiments, the labels for the two probes may be different and have different fluorescence and stability characteristics. […] After incubation, cells are washed in flow cytometry staining buffer and then analyzed by flow cytometry.\nRelative C-strand content and relative G-strand content of the sample cells is determined, and a ratio of G content to C content calculated. First, the mean fluorescence of the probes is measured for both sample cells and standard. […] The fluorescent marker in the standard allows for identification of the internal standard and separation of its Tel G and Tel C probe fluorescence. […]",
  "data": [
    {"smiles": "NC(=O)NO", "note": "[hydroxyurea]", "values": [
      {"measurement": "G to C ratio (relative telomeric G content to C content, relative to 1301 cell standard)", "result": "below 0.8"}
    ]}
  ]
}
